Results: the supplement of paper PMC11061612

Columns and labels:
Assay in all cases: combination Emax (second highest fraction inhibited in the dose matrix, 72 h); higher = more inhibition; extreme values may be limits of the assay
[1] = tested on: NCI-H2405 (Lung Adenocarcinoma)
In short: (§1)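 Cell lines grown in DMEM/F12 or RPMI with 10% FBS were plated in 1536-well plates and held 24 hours at 37°C, 5% CO2 before 72 hours of exposure to two-drug dose matrices, with DMSO typically at 0.2%. CellTiter-Glo 2.0 luminescence gave viability, which was converted to inhibition. Vehicle wells were set to 0 and blank wells to 1. Combination Emax is the second-highest inhibition in the matrix, and Bliss excess is the observed combination effect minus the expected EA + EB − EA·EB, where EA and EB are the single-agent effects.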

[2] = tested on: SCC-3 (B-Cell Non-Hodgkin's Lymphoma)
In short: as §1

A704 (Kidney Carcinoma) = tested on: A704 (Kidney Carcinoma)
In short: as §1

[3] = tested on: SCC-9 (Oral Cavity Carcinoma)
In short: as §1

[4] = tested on: OVISE (Ovarian Carcinoma)
In short: as §1

NB7 (Neuroblastoma) = tested on: NB7 (Neuroblastoma)
In short: as §1

[5] = tested on: KINGS-1 (Low Grade Glioma)
In short: as §1

BT-20 (Breast Carcinoma) = tested on: BT-20 (Breast Carcinoma)
In short: as §1

[6] = tested on: OCUB-M (Breast Carcinoma)
In short: as §1

[7] = tested on: BV-173 (Chronic Myelogenous Leukemia)
In short: as §1

EW-18 (Ewing's Sarcoma) = tested on: EW-18 (Ewing's Sarcoma)
In short: as §1

[8] = tested on: SNU-C1 (Colorectal Carcinoma)
In short: as §1

[9] = tested on: MFE-319 (Endometrial Carcinoma)
In short: as §1

RPMI-7951 (Melanoma) = tested on: RPMI-7951 (Melanoma)
In short: as §1

Row | SMILES | combination Emax [1] | combination Emax [2] | combination Emax (A704 (Kidney Carcinoma)) | combination Emax [3] | combination Emax [4] | combination Emax (NB7 (Neuroblastoma)) | combination Emax [5] | combination Emax (BT-20 (Breast Carcinoma)) | combination Emax [6] | combination Emax [7] | combination Emax (EW-18 (Ewing's Sarcoma)) | combination Emax [8] | combination Emax [9] | combination Emax (RPMI-7951 (Melanoma))
1 | CC1(C)CCC(CN2CCN(c3ccc(C(=O)NS(=O)(=O)c4ccc(NCC5CCOCC5)c([N+](=O)[O-])c4)c(Oc4cnc5[nH]ccc5c4)c3)CC2)=C(c2ccc(Cl)cc2)C1 [Venetoclax] + COc1cc(Nc2ncc3c(n2)-c2ccc(Cl)cc2C(c2c(F)cccc2OC)=NC3)ccc1C(=O)O [Alisertib] (first compound max 1 µM, 7x7, partner max 10 µM) | 0.228 | 0.893 | 0.758 | 0.274 | 0.578 | 0.556 | 0.379 | 0.499 | 0.727 | 0.971 | 0.736 | 0.251 | 0.395 | 0.683
2 | CC1(C)CCC(CN2CCN(c3ccc(C(=O)NS(=O)(=O)c4ccc(NCC5CCOCC5)c([N+](=O)[O-])c4)c(Oc4cnc5[nH]ccc5c4)c3)CC2)=C(c2ccc(Cl)cc2)C1 [Venetoclax] + C1CN(CCC1(C(=O)N[C@@H](CCO)C2=CC=C(C=C2)Cl)N)C3=NC=NC4=C3C=CN4 [Capivasertib] (first compound max 1 µM, 7x7, partner max 3 µM) | 0.187 | 0.131 | 0.318 | 0.146 | 0.456 | 0.056 | 0.329 | 0.62 | 0.942 | 0.897 | 0.662 | 0.428 | 0.321 | 0.472
3 | Cc1c2c(nn1C)CSCc1cc(n(C)n1)CSc1cc(c3ccccc3c1)OCCCc1c(C(=O)O)n(C)c3c-2c(Cl)ccc13 [AZD5991] + CN(C)CCCOc1ccc(-c2ccc3ncc4c(c3c2)n(C2CCOCC2)c(=O)n4C)cn1 [AZD0156] (first compound max 1 µM, 7x7, partner max 1 µM) | 0.228 | 0.396 | 0.24 | 0.269 | 0.283 | 0.499 | 0.278 | 0.636 | 0.949 | 0.95 | 0.94 | 0.424 | 0.78 | 0.945
4 | CC(=O)c1c(C)c2cnc(Nc3ccc(N4CCNCC4)cn3)nc2n(C2CCCC2)c1=O [Palbociclib] + Cn1cnc2c(F)c(Nc3ccc(Br)cc3Cl)c(C(=O)NOCCO)cc21 [Selumetinib] (first compound max 10 µM, 7x7, partner max 10 µM) | 0.428 | 0.503 | 0.705 | 0.397 | 0.271 | 0.331 | 0.232 | 0.361 | 0.0542 | 0.733 | 0.58 | 0.598 | 0.31 | 0.546
5 | COc1cc2ncnc(Nc3ccc(F)c(Cl)c3)c2cc1OCCCN1CCOCC1 [Gefitinib] + CC(C)n1c(=O)n(C)c2cnc3cc(F)c(-c4ccc(OCCCN5CCCCC5)nc4)cc3c21 [AZD1390] (first compound max 10 µM, 7x7, partner max 0.3 µM) | 0.0242 | 0.348 | 0.439 | 0.626 | 0.197 | 0.136 | 0.113 | 0.244 | 0.154 | 0.391 | 0.229 | 0.0654 | 0.0734 | 0.0802
6 | COc1cccc(OCCCN)c1-c1cc(Nc2cnc(C#N)cn2)n[nH]1 [Prexasertib] + CN(C)CCCOc1ccc(-c2ccc3ncc4c(c3c2)n(C2CCOCC2)c(=O)n4C)cn1 [AZD0156] (first compound max 1 µM, 7x7, partner max 1 µM) | 0.406 | 1 | 0.485 | 0.46 | 0.796 | 0.858 | 0.528 | 0.626 | 0.574 | 0.97 | 0.761 | 0.751 | 0.815 | 0.953
7 | COc1nnc2ccc(N3CCC(c4ccc(OCCN5CCN(C)C(=O)[C@H]5C)cc4)CC3)nn12 [AZD5153] + C[C@@H]1COCCN1C2=NC(=NC(=C2)C3(CC3)[S@](=N)(=O)C)C4=C5C=CNC5=NC=C4 [AZD6738] (first compound max 1 µM, 7x7, partner max 10 µM) | 0.511 | 0.986 | 0.681 | 0.45 | 0.754 | 0.589 | 0.281 | 0.399 | 0.735 | 0.95 | 0.781 | 0.693 | 0.785 | 0.925
8 | CC1(C)CCC(CN2CCN(c3ccc(C(=O)NS(=O)(=O)c4ccc(NCC5CCOCC5)c([N+](=O)[O-])c4)c(Oc4cnc5[nH]ccc5c4)c3)CC2)=C(c2ccc(Cl)cc2)C1 [Venetoclax] + Cc1cc2ncnn2cc1Nc1ncc2c(n1)n(C1CCOCC1)c(=O)n2C [AZD7648] (first compound max 1 µM, 7x7, partner max 10 µM) | 0.103 | 0.214 | 0.32 | 0.194 | 0.275 | 0.0987 | 0.329 | 0.374 | 0.383 | 0.811 | 0.455 | 0.227 | 0.26 | 0.334
